{
  "source": "patent US20120077673A1",
  "about": "“Fungicidal Compositions and Methods of Use” (priority 2010, published 2012)",
  "type_in_all_cases": "in vivo",
  "details_in_all_cases": "Triadimenol 30 GA/100 Kg",
  "key": {"Pythium [1]": {"tested_on": "Pythium", "experiment": "Corn hybrids greenhouse trial, Pythium-infected seeds, seed treatment (Example 4)", "text": "Concentrations and compositions of triadimenol, metalaxyl, and saponin are the same as given in Example 1. The data of TABLE 4 are shown graphically in FIGS. 4A and 4B. As shown by TABLE 4 and FIGS. 4A and 4B, pre-treatment of both varieties of corn seeds with 1 GA/100 Kg metalaxyl and 0.6 GA/100 Kg yielded counts similar to those achieved from pre-treatment of seeds with either 2 GA/100 Kg metalaxyl (the industry standard dose for corn) or 7.5 GA/100 Kg metalaxyl."}, "Pythium [2]": {"tested_on": "Pythium", "experiment": "Corn field trial, Pythium-infected seeds, seed treatment, soil not inoculated (Example 1)", "design": "Density: unit not given here", "text": "Unlike other experiments disclosed herein, the soil for the experiment of EXAMPLE 1 was not inoculated with Pythium. Uninfected untreated, and Pythium-infected untreated seeds served as controls. Triadimenol, 15% w/v, is a systemic broad-spectrum fungicide used for cereal seed treatment, but has no activity against Pythium spp. Metalaxyl, 28.35% w/v, provides systemic protection for the seed, roots, and emerging plants against Pythium, systemic downy mildew, and Phytophthora. For corn, the industry standard dosage of metalaxyl is 2 grams of active ingredient per 100 kilograms of seed (2 GA/100 Kg). Saponin, 49.65% v/v extract of Chenopodium quinoa saponins, contained approximately equimolar amounts of triterpene bidesmosidic glycosides of oleanolic acid, hederagenin, and phytolaccagenic acid. […] In TABLE 1, “Vigor” represents a subjective measure of plant health and is based on uniformity, consistent plant mass, and consistent plant spacing, with lower scores being more favorable than higher scores. The data of TABLE 1 are shown graphically in FIGS. 1A and 1B. As shown by TABLE 1 and FIGS. 1A and 1B, the count and the density increased—over time—for all treatment conditions. The relative density, however, decreased over time for the […] and metalaxyl (2 GA/100 kg) categories. The relative density remained the same for the untreated/uninfected category because it provided the reference point (i.e., the relative densities were calculated with reference to the untreated/uninfected category)."}, "Pythium [3]": {"tested_on": "Pythium", "experiment": "Cucumber field trial, Pythium-infected seeds, seed treatment, control or Pythium-inoculated soil (Example 3)", "design": "Density: unit not given here", "text": "The seeds were planted in a field, either in soil that had been inoculated with Pythium (Soil Inoc. with Pythium), or in soil that had not been inoculated with Pythium (Ctrl.), then allowed to grow. Concentrations and compositions of triadimenol, metalaxyl, and saponin are the same as given in Example 1. For cucumber, the industry standard dosage of metalaxyl is 15.5 grams of active ingredient per 100 kilograms of seed (15.5 GA/100 Kg). […] The data of TABLE 3 are shown graphically in FIG. 3. The relative densities for the data of TABLE 3 and FIG. 3 were calculated with reference to the 31 GA/100 Kg metalaxyl category. As shown by TABLE 3 and FIG. 3, inoculation of the soil with Pythium was correlated with a general decrease in cucumber seedling count, density, and relative density (compare Ctrl. versus Inoc.)."}, "Pythium [4]": {"tested_on": "Pythium", "experiment": "Cotton field trial, Pythium-infected seeds, seed treatment, control or Pythium-inoculated soil (Example 2)", "text": "The seeds were planted in a field, either in soil that had been inoculated with Pythium (Soil Inoc. with Pythium), or in soil that had not been inoculated with Pythium (Ctrl.), then allowed to grow. Concentrations and compositions of triadimenol, metalaxyl, and saponin are the same as given in Example 1. For cotton, the industry standard dosage of metalaxyl is 15.5 grams of active ingredient per 100 kilograms of seed (15.5 GA/100 Kg). […] The data of TABLE 2 are shown graphically in FIG. 2. The relative densities for the data of TABLE 2 and FIG. 2 were calculated with reference to the 15.5 GA/100 Kg metalaxyl category. As shown by TABLE 2 and FIG. 2, inoculation of the soil with Pythium was correlated with a general decrease in cotton seedling count and density (compare Ctrl. versus Inoc.)."}, "[5]": {"details": "18 DAA, Soil Inoc. with Pythium"}, "[6]": {"details": "33 DAA, Soil Inoc. with Pythium"}, "[7]": {"details": "34 DAA, Soil Inoc. with Pythium"}, "[8]": {"details": "46 DAA, Soil Inoc. with Pythium"}},
  "data": [
    {"compound": "CC(C)(C)C(O)C(Oc1ccc(Cl)cc1)n1cncn1", "note": "(stereo not shown) [Triadimenol]", "values": [
      {"measurement": "Count, Hybrid A", "setting": "Pythium [1]; Day 2", "value": 62},
      {"measurement": "Count, Hybrid B", "setting": "Pythium [1]; Day 2", "value": 24},
      {"measurement": "Count, Hybrid A", "setting": "Pythium [1]; Day 7", "value": 72},
      {"measurement": "Count, Hybrid B", "setting": "Pythium [1]; Day 7", "value": 40},
      {"measurement": "Count, Hybrid A", "setting": "Pythium [1]; Day 14", "value": 74},
      {"measurement": "Count, Hybrid B", "setting": "Pythium [1]; Day 14", "value": 40},
      {"measurement": "Count", "setting": "Pythium [2]; 30 DAA", "value": 21},
      {"measurement": "Density", "setting": "Pythium [2]; 30 DAA", "value": 25.9},
      {"measurement": "Relative Density", "setting": "Pythium [2]; 30 DAA", "value": 69.2},
      {"measurement": "Count", "setting": "Pythium [2]; 46 DAA", "value": 60},
      {"measurement": "Density", "setting": "Pythium [2]; 46 DAA", "value": 74.4},
      {"measurement": "Relative Density", "setting": "Pythium [2]; 46 DAA", "value": 96.4},
      {"measurement": "Vigor", "setting": "Pythium [2]; 46 DAA, subjective score, lower more favorable", "value": 4.50},
      {"measurement": "Count", "setting": "Pythium [3]; 18 DAA, Ctrl. soil", "value": 28},
      {"measurement": "Density", "setting": "Pythium [3]; 18 DAA, Ctrl. soil", "value": 56},
      {"measurement": "Relative Density", "setting": "Pythium [3]; 18 DAA, Ctrl. soil", "value": 80},
      {"measurement": "Count", "setting": "Pythium [3]; [5]", "value": 10},
      {"measurement": "Density", "setting": "Pythium [3]; [5]", "value": 20},
      {"measurement": "Relative Density", "setting": "Pythium [3]; [5]", "value": 34.5},
      {"measurement": "Count", "setting": "Pythium [3]; 33 DAA, Ctrl. soil", "value": 28.3},
      {"measurement": "Density", "setting": "Pythium [3]; 33 DAA, Ctrl. soil", "value": 56.5},
      {"measurement": "Relative Density", "setting": "Pythium [3]; 33 DAA, Ctrl. soil", "value": 83.1},
      {"measurement": "Count", "setting": "Pythium [3]; [6]", "value": 4.3},
      {"measurement": "Density", "setting": "Pythium [3]; [6]", "value": 8.5},
      {"measurement": "Relative Density", "setting": "Pythium [3]; [6]", "value": 16.2},
      {"measurement": "Count", "setting": "Pythium [4]; 34 DAA, Ctrl. soil", "value": 39.5},
      {"measurement": "Density", "setting": "Pythium [4]; 34 DAA, Ctrl. soil", "value": 79},
      {"measurement": "Relative Density", "setting": "Pythium [4]; 34 DAA, Ctrl. soil", "value": 106.8},
      {"measurement": "Count", "setting": "Pythium [4]; [7]", "value": 18.3},
      {"measurement": "Density", "setting": "Pythium [4]; [7]", "value": 36.5},
      {"measurement": "Relative Density", "setting": "Pythium [4]; [7]", "value": 73},
      {"measurement": "Count", "setting": "Pythium [4]; 46 DAA, Ctrl. soil", "value": 40.3},
      {"measurement": "Density", "setting": "Pythium [4]; 46 DAA, Ctrl. soil", "value": 80.5},
      {"measurement": "Relative Density", "setting": "Pythium [4]; 46 DAA, Ctrl. soil", "value": 107.3},
      {"measurement": "Count", "setting": "Pythium [4]; [8]", "value": 17.5},
      {"measurement": "Density", "setting": "Pythium [4]; [8]", "value": 35},
      {"measurement": "Relative Density", "setting": "Pythium [4]; [8]", "value": 71.4}
    ]}
  ]
}
